PubChem BioAssay (NCI)
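Assay format: 96-well plates, 48-hour exposure. Here, GI50 denotes the concentration required for 50% inhibition of growth. TGI marks complete inhibition of growth.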

How the values were obtained:
Test in all cases: inhibition of tumour cell growth, NCI panel, 48 h
NCI-H226 lung = tested on: NCI-H226 lung
NCI-H23 lung = tested on: NCI-H23 lung
NCI-H460 lung = tested on: NCI-H460 lung
NCI-H522 lung = tested on: NCI-H522 lung
NCI/ADR-RES ovarian = tested on: NCI/ADR-RES ovarian
OVCAR-3 ovarian = tested on: OVCAR-3 ovarian
OVCAR-4 ovarian = tested on: OVCAR-4 ovarian
OVCAR-5 ovarian = tested on: OVCAR-5 ovarian
OVCAR-8 ovarian = tested on: OVCAR-8 ovarian
PC-3 prostate = tested on: PC-3 prostate
RPMI-8226 leukemia = tested on: RPMI-8226 leukemia
RXF 393 renal = tested on: RXF 393 renal
SF-268 CNS = tested on: SF-268 CNS
SF-295 CNS = tested on: SF-295 CNS
SF-539 CNS = tested on: SF-539 CNS
SK-MEL-2 melanoma = tested on: SK-MEL-2 melanoma
SK-MEL-28 melanoma = tested on: SK-MEL-28 melanoma
SK-MEL-5 melanoma = tested on: SK-MEL-5 melanoma
SK-OV-3 ovarian = tested on: SK-OV-3 ovarian
SN12C renal = tested on: SN12C renal
SNB-19 CNS = tested on: SNB-19 CNS
SNB-75 CNS = tested on: SNB-75 CNS
SR leukemia = tested on: SR leukemia
SW-620 colon = tested on: SW-620 colon
T-47D breast = tested on: T-47D breast
TK-10 renal = tested on: TK-10 renal
U251 CNS = tested on: U251 CNS
UACC-257 melanoma = tested on: UACC-257 melanoma
UACC-62 melanoma = tested on: UACC-62 melanoma
UO-31 renal = tested on: UO-31 renal

COc1ccc(CN2[C@H](C(=O)NCCCCCCC(=O)NO)Cc3c([nH]c4ccccc34)[C@H]2C2CC2)cc1
TGI (NCI-H226 lung): > 16500 nM
GI50 (NCI-H23 lung): 1880 nM
TGI (NCI-H23 lung): 8190 nM
GI50 (NCI-H460 lung): 1780 nM
TGI (NCI-H460 lung): > 20000 nM
GI50 (NCI-H522 lung): 1330 nM
TGI (NCI-H522 lung): 5210 nM
GI50 (NCI/ADR-RES ovarian): 5420 nM
TGI (NCI/ADR-RES ovarian): > 20000 nM
GI50 (OVCAR-3 ovarian): 1890 nM
TGI (OVCAR-3 ovarian): 8380 nM
GI50 (OVCAR-4 ovarian): 5240 nM
TGI (OVCAR-4 ovarian): > 20000 nM
GI50 (OVCAR-5 ovarian): 1090 nM
TGI (OVCAR-5 ovarian): 3180 nM
GI50 (OVCAR-8 ovarian): 1950 nM
TGI (OVCAR-8 ovarian): > 10200 nM
GI50 (PC-3 prostate): 1880 nM
TGI (PC-3 prostate): > 20000 nM
GI50 (RPMI-8226 leukemia): 1870 nM
TGI (RPMI-8226 leukemia): > 20000 nM
GI50 (RXF 393 renal): 898 nM
TGI (RXF 393 renal): 2450 nM
GI50 (SF-268 CNS): 2870 nM
TGI (SF-268 CNS): > 13700 nM
GI50 (SF-295 CNS): 1420 nM
TGI (SF-295 CNS): 4330 nM
GI50 (SF-539 CNS): 1820 nM
TGI (SF-539 CNS): 8740 nM
GI50 (SK-MEL-2 melanoma): 998 nM
TGI (SK-MEL-2 melanoma): 18100 nM
GI50 (SK-MEL-28 melanoma): 1660 nM
TGI (SK-MEL-28 melanoma): 6850 nM
GI50 (SK-MEL-5 melanoma): 1250 nM
TGI (SK-MEL-5 melanoma): 2970 nM
GI50 (SK-OV-3 ovarian): 1170 nM
TGI (SK-OV-3 ovarian): 3280 nM
GI50 (SN12C renal): 2190 nM
TGI (SN12C renal): 8580 nM
GI50 (SNB-19 CNS): 2110 nM
TGI (SNB-19 CNS): 12500 nM
GI50 (SNB-75 CNS): 397 nM
TGI (SNB-75 CNS): > 5950 nM
GI50 (SR leukemia): 1120 nM
TGI (SR leukemia): > 20000 nM
GI50 (SW-620 colon): 1150 nM
TGI (SW-620 colon): 3530 nM
GI50 (T-47D breast): 1520 nM
TGI (T-47D breast): 4710 nM
GI50 (TK-10 renal): 1390 nM
TGI (TK-10 renal): 7360 nM
GI50 (U251 CNS): 1810 nM
TGI (U251 CNS): 7260 nM
GI50 (UACC-257 melanoma): 1760 nM
TGI (UACC-257 melanoma): > 9720 nM
GI50 (UACC-62 melanoma): 1010 nM
TGI (UACC-62 melanoma): 2560 nM
GI50 (UO-31 renal): 2280 nM
TGI (UO-31 renal): 9500 nM
